The subject of series [1] is primary neuronal cultures. Kind of series: DHE oxidation (superoxide and/or hydrogen peroxide production) in primary neuronal cultures exposed to ketamine. It counts as cell-based, mouse.
The test system of series [2] is PV-interneurons. As to the kind of experiment: parvalbumin and GAD67 immunoreactivity in PV-interneurons in primary neuronal cultures.
Series [3] deals with NADPH oxidase (Nox). As to the kind of experiment: Nox activity in synaptosomes by NADPH-dependent oxygen consumption (oximetry). It counts as biochemical, mouse. The settings on record: ketamine 30 mg/kg in vivo on two consecutive days. The method, then: Synaptosomal preparations. […] Mice were euthanized by exposure to a lethal dose of inhaled halothane, followed by cervical dislocation. Brains were rapidly removed, cortices dissected and homogenized in 10 volumes of ice-cold isolation buffer (0.32M sucrose, 1 mM EDTA, 10 mM Tris-HCl buffer, pH 7.4, 10 mM glucose). The homogenate was centrifuged at 3100 rpm for 3 min at 4° C., and the supernatant collected, and the pellet was re-homogenized in half the volume of isolation buffer and centrifuged again. Synaptosomal were then isolated as described (see reference 30, below) modified as follows, the pooled supernatants were mixed with PERCOLL™ (Sigma, St. Louis, Mo.) to a final concentration of 15%, and then layered onto a step gradient of 23% and 40% PERCOLL™, and centrifuged at 16,000 rpm for 5 minutes at 4° C. The uppermost band was extracted, rinsed in isolation buffer, centrifuged and resuspended in synaptosomal buffer (120 mM NaCl, 4.7 mM KCl, 2.2 mM CaCl2, 1.2 mM MgCl2, 25 mM HEPES, 1.2 mM MgSO4, 1.2 mM KH2PO4, 10 mM glucose).
Oxygen consumption studies (oximetry). O2 consumption studies on synaptosomes are carried out. […] Studies were carried out to optimize the concentration of synaptosomal protein required, and to confirm stability and viability of synaptosomes and their mitochondria for up to 6 h.

In series [4] the test system is PV-interneurons in mouse prefrontal cortex. As to the kind of experiment: two-day ketamine treatment of mice: oxidized DHE, parvalbumin and GAD67 in prefrontal cortex. The format is in vivo. The method, then: Animals and treatments. […] Male C57BL6 mice were obtained from Jackson Labs, Bar Harbor, Me., at 8-12 weeks and housed in our facility until 15 weeks when they were used for experiments. Ketamine (30 mg/kg) was applied intraperitoneally (IP) on two consecutive days at around 4 pm. DHE was applied 30 min after the last ketamine injection as described (19, 20). Briefly, two serial i.p. injections of freshly prepared dihydroethidium (27 mg/kg) are given at 30 minute intervals. Eighteen hours later, mice are anesthetized with inhaled halothane, and perfused intracardially with cold saline followed by 4% paraformaldehyde in PBS. The Nox inhibitor, apocynin (5 mg/kg/day) was given in the drinking water for a total of seven days, with an assumed intake of […] H2O/mouse/day, and ketamine was applied on the last two days. […] All animal studies were approved by the Animal Care Program at the University of California, San Diego, and are in accordance the PHS Guide for the Care and Use of Laboratory Animals, USDA Regulations, and the AVMA Panel on Euthanasia.
Immunohistochemistry: Brains were frontally sliced in a vibratome into 50 μm coronal sections encompassing the prefrontal cortex region (from Bregma 2.0 to 1.3). Sequential slices were processed for floating-section double immunohistochemistry for the detection of parvalbumin and GAD67. Antigen retrieval was performed by incubation of the slices in 1% sodium borohydride for 15 min as described (see reference 34, below), followed by washing in PBS and incubation in 10% normal goat serum in PBS for 16 h at 4° C. Primary antibodies (Calbindin: 1:5000: Calretinin: 1:2000; Parvalbumin: 1:3000, all rabbit polyclonals from Swant, Bellinzona, Switzerland. GAD67: 1:1000, from Chemicon-Millipore, Temecula, Calif.) were diluted in 2% normal goat serum in PBS and applied to the slices for 18 h at 4° C., after which slices were washed in PBS and incubated in a 1:1000 dilution of ALEXAFLUOR™ (Molecular Probes, Invitrogen, Carlsbad, Calif.) conjugated goat anti-rabbit (568) or goat anti-mouse (488) antibodies for 1 hr at room temperature (rt). Slices were washed in PBS and mounted sequentially in glass slides using […]™ (Vector Laboratories, Burlingame, Calif.), covered with a coverslip and allowed to dry for at least 24 h before confocal imaging.
Six slices were analyzed per animal.
Analysis of superoxide and/or hydrogen peroxide production by confocal imaging of in vivo dihydroethidium (DHE) oxidation. Mice will be injected intraperitoneally (i.p.) with dihydroethidium.

The test system is the same in series [5]. Described as above. It counts as in vivo. The settings on record: 24 h following a single ketamine exposure.
The test system of series [6] is synaptosomal mitochondria. As to the kind of experiment: respiration of synaptosomal mitochondria (oximetry). The note with it: after in vivo ketamine 30 mg/kg, two days.
Series [7] concerns primary cultures. The note with it: ketamine 0.5 μM, 1 h and 3 h.
Series [8] deals with IL-6 mRNA. As to the kind of experiment: cytokine mRNA by RT-PCR in ketamine-treated primary neuronal cultures. The note with it: ketamine 0.5 μM, up to 24 h.
Series [9] deals with Nox2, Nox4, p22phox. As to the kind of experiment: Western blot of Nox proteins in brain membranes after in vivo ketamine. The settings on record: ketamine 30 mg/kg i.p., two consecutive days.
The test system of series [10] is Nox2. Kind of series: Nox expression in primary neuronal cultures (immunocytochemistry, Western blot).
Series [11] deals with T1, IL-6 receptors (Homo sapiens, UniProt P08887).
T1 construct: host or cells: patients with rheumatoid arthritis / juvenile idiopathic arthritis
T1 sequence (P08887 20-468): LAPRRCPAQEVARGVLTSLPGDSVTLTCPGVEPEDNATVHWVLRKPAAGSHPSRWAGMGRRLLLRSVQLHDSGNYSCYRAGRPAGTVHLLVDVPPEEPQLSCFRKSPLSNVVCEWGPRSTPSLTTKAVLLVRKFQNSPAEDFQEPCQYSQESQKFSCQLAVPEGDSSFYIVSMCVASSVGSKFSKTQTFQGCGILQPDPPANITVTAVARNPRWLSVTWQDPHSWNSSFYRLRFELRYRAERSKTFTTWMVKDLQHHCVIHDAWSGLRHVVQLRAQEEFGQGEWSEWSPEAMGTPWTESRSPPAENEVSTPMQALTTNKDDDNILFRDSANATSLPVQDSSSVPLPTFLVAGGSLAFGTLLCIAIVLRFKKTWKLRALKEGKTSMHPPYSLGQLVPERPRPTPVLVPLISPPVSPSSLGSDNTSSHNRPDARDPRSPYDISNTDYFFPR
The note with it: Phase I and II clinical trials, cited from earlier work.

For series [12] the following is noted: in vivo; cited from earlier work.
Series [13] concerns NFkB. Kind of series: IL-6 induced superoxide production (DHE oxidation) in neuronal cultures with NFkB inhibitor. It counts as cell-based. The note with it: assessed 4 hours later.
[14] abbreviates: 2-day ketamine, saline 30.1±14.3.
Where [15] appears, read: ketamine 30 mg/kg i.p., two consecutive days.

“Also recorded” adds a separate entry of the source.

`NCc1cc(=O)[nH]o1` [muscimol]: the “effect on ketamine-mediated increase in oxidized DHE” value in series [1] (co-exposure with ketamine 0.5 μM 24 h, muscimol 10 μM, C3 20 μM, apocynin 0.5 mM) was “prevented; also recorded: complete block”. In addition, in series [2] (co-exposure with ketamine 24 h, muscimol 10 μM, C3, apocynin 0.5 mM), the “effect on ketamine-mediated loss of parvalbumin and GAD67 immunoreactivity in PV-interneurons” value is listed as “prevented; also recorded: preservation”.

With `CNC1(c2ccccc2Cl)CCCCC1=O` (centres unmarked) [ketamine], the “oxidized DHE (neuronal superoxide and/or hydrogen peroxide production)” value in [1] (ketamine 0.5 μM, 24 h) is given as “significant increase; also recorded: pronounced increase”. Also, the “Nox activity in synaptosomes” value in [3] is “pronounced increase”. In [4] (setting [14]), the “GAD67 in calbindin cells, mean intensity±SD” value was 44.2±14.5 and the “GAD67 in calretinin cells, mean intensity+SD” value is 44.2±14.5. Also, the “calretinin, mean intensity+SD” value in [4] (2-day ketamine, saline 133.6±35.6) is on record as 139.4±28.7. For the same molecule, in [4] (2-day ketamine, saline 215.6±32.1), the “calbindin, mean intensity±SD” value is reported as 231.6±25.6. In series [4] (setting [15]), the “oxidized DHE in brain / PFC” value is “widespread increase; also recorded: pronounced increase”; the “parvalbumin and GAD67 immunoreactivity in PV-interneurons of PFC” value is recorded as “significant reduction; also recorded: pronounced decrease”. Moreover, the “effects on PV-interneurons in the prefrontal region” value in series [5] is “not present”. Also, the “metabolic activities of synaptosomal mitochondria” value in series [6] is “not affected”. Further, the “superoxide signals (EPR, DIPPMPO)” value in series [7] is “rapid increase”. In addition, the “levels of other pro-inflammatory cytokines (IL-1, TNF mRNA)” value in series [8] was “without affecting”. Also, the “expression of Nox2 and p22phox in membrane preparations of cortical tissue” value in [9] was “significant increase”. The Nox4 expression entry in [10] (after ketamine treatment, cultures) is recorded as “did not see changes”. Also, the “Nox2 immunoreactivity, fluorescence quantification” value in [10] (ketamine 0.5 μM, 24 h, control 100+/−8%) is 170+/−15%. Besides, the parvalbumin immunoreactivity entry in series [2] (ketamine 0.5 μM, 24 h) is listed as “reduction”.

Regarding “Tocilizumab: therapeutic humanized monoclonal antibody, specific antagonist for IL-6 receptors”, the “rheumatoid arthritis disease activity” value in [11] (2, 4, 5, 8 or 10 mg/kg, dose-dependent) is “reduced rheumatoid arthritis disease activity significantly”. Moreover, the safety and tolerability result in series [11] is “generally safe and well tolerated”. Also, the “plasma half-life” value in series [12] is on record as “long plasma half-life”.

Regarding “H2N-Ala-Ala-Val-Ala-Leu-Leu-Pro-Ala-Val-Leu-Leu-Ala-Leu-Leu-Ala-Pro-Val-Gln-Arg-Lys-Arg-Gn-Lvs-Leu-Met-Pro-OH (H-AAVALLPAVLLALLAPVQRKRQKLMP-OH) [SN50]”, the “effect on IL-6 induced superoxide production (DHE oxidation)” value in series [13] is reported as “blocks”.

For the molecule “CNTO-328: human-mouse chimeric monoclonal antibody (Mab) to IL-6 (Centocor)”, the plasma half-life result in [12] is given as “roughly 17 days”.

(Values after US9944583B2, “Methods for ameliorating and preventing central nervous system inflammation” (THE REGENTS OF THE UNIVERSITY OF CALIFORNIA, priority 2007, dated 2018).)
